Here are results for eight compounds from ChEMBL document CHEMBL5537170, “Design, Synthesis, and Anti-Osteoporotic Characterization of Arginine N-Glycosylated Teriparatide Analogs via the Silver-catalyzed Solid-Phase Glycosylation Strategy” (J Med Chem, 2024).

Structures are written as SMILES. *1 amine or outer side, *2 acyl side, *3 side chain or, on linkers, in order; H or OH if unused. Where a SMILES comes first, the peptide text is derived from it. [ ]: non-standard residue; d: D form. X4 = N=C(NCCC[C@H](N[*:1])C(=O)[*:2])N[C@@H]1O[C@H](CO)[C@H](O)[C@H](O)[C@H]1O; X5 = N=C(NCCC[C@H](N[*:1])C(=O)[*:2])N[C@@H]1OC[C@@H](O)[C@H](O)[C@H]1O

The data set is described as follows: Cytotoxicity against C57BL/6 mouse Pre-Osteoblast cells assessed as cell death upto 5 uM incubated for 4 days by CCK-8 assay. The data set is classed as toxicity, cell-based. The note with it: 96 h, time 4 day.
On to `CC[C@H](C)[C@H](NC(=O)[C@H](CCC(=O)O)NC(=O)[C@H](CO)NC(=O)[C@@H](NC(=O)[C@H](CO)NC(C)=O)C(C)C)C(=O)N[C@@H](CCC(N)=O)C(=O)N[C@@H](CC(C)C)C(=O)N[C@@H](CCSC)C(=O)N[C@@H](Cc1cnc[nH]1)C(=O)N[C@@H](CC(N)=O)C(=O)N[C@@H](CC(C)C)C(=O)NCC(=O)N[C@@H](CCCCN)C(=O)N[C@@H](Cc1cnc[nH]1)C(=O)N[C@@H](CC(C)C)C(=O)N[C@@H](CC(N)=O)C(=O)N[C@@H](CO)C(=O)N[C@@H](CCSC)C(=O)N[C@@H](CCC(=O)O)C(=O)N[C@@H](CCCNC(=N)N[C@@H]1O[C@H](CO)[C@H](O)[C@H](O)[C@H]1O)C(=O)N[C@H](C(=O)N[C@@H](CCC(=O)O)C(=O)N[C@@H](Cc1c[nH]c2ccccc12)C(=O)N[C@@H](CC(C)C)C(=O)N[C@@H](CCCNC(=N)N[C@@H]1O[C@H](CO)[C@H](O)[C@H](O)[C@H]1O)C(=O)N[C@@H](CCCCN)C(=O)N[C@@H](CCCCN)C(=O)N[C@@H](CC(C)C)C(=O)N[C@@H](CCC(N)=O)C(=O)N[C@@H](CC(=O)O)C(=O)N[C@H](C(=O)N[C@@H](Cc1cnc[nH]1)C(=O)N[C@@H](CC(N)=O)C(=O)N[C@@H](Cc1ccccc1)C(N)=O)C(C)C)C(C)C` (Ac-SVSEIQLMHNLGKHLNSME[X4]VEWL[X4]KKLQDVHNF-NH2), for which the Activity result was “Non-Toxic”.

`CC[C@H](C)[C@H](NC(=O)[C@H](CCC(=O)O)NC(=O)[C@H](CO)NC(=O)[C@@H](NC(=O)[C@H](CO)NC(C)=O)C(C)C)C(=O)N[C@@H](CCC(N)=O)C(=O)N[C@@H](CC(C)C)C(=O)N[C@@H](CCSC)C(=O)N[C@@H](Cc1cnc[nH]1)C(=O)N[C@@H](CC(N)=O)C(=O)N[C@@H](CC(C)C)C(=O)NCC(=O)N[C@@H](CCCCN)C(=O)N[C@@H](Cc1cnc[nH]1)C(=O)N[C@@H](CC(C)C)C(=O)N[C@@H](CC(N)=O)C(=O)N[C@@H](CO)C(=O)N[C@@H](CCSC)C(=O)N[C@@H](CCC(=O)O)C(=O)N[C@@H](CCCNC(=N)N[C@H]1O[C@H](CO)[C@@H](O)[C@H](O)[C@H]1O)C(=O)N[C@H](C(=O)N[C@@H](CCC(=O)O)C(=O)N[C@@H](Cc1c[nH]c2ccccc12)C(=O)N[C@@H](CC(C)C)C(=O)N[C@@H](CCCNC(=N)N)C(=O)N[C@@H](CCCCN)C(=O)N[C@@H](CCCCN)C(=O)N[C@@H](CC(C)C)C(=O)N[C@@H](CCC(N)=O)C(=O)N[C@@H](CC(=O)O)C(=O)N[C@H](C(=O)N[C@@H](Cc1cnc[nH]1)C(=O)N[C@@H](CC(N)=O)C(=O)N[C@@H](Cc1ccccc1)C(N)=O)C(C)C)C(C)C`: the Activity entry is reported as “Non-Toxic”.

With `CC[C@H](C)[C@H](NC(=O)[C@H](CCC(=O)O)NC(=O)[C@H](CO)NC(=O)[C@@H](NC(=O)[C@H](CO)NC(C)=O)C(C)C)C(=O)N[C@@H](CCC(N)=O)C(=O)N[C@@H](CC(C)C)C(=O)N[C@@H](CCSC)C(=O)N[C@@H](Cc1cnc[nH]1)C(=O)N[C@@H](CC(N)=O)C(=O)N[C@@H](CC(C)C)C(=O)NCC(=O)N[C@@H](CCCCN)C(=O)N[C@@H](Cc1cnc[nH]1)C(=O)N[C@@H](CC(C)C)C(=O)N[C@@H](CC(N)=O)C(=O)N[C@@H](CO)C(=O)N[C@@H](CCSC)C(=O)N[C@@H](CCC(=O)O)C(=O)N[C@@H](CCCNC(=N)N[C@@H]1OC[C@@H](O)[C@H](O)[C@H]1O)C(=O)N[C@H](C(=O)N[C@@H](CCC(=O)O)C(=O)N[C@@H](Cc1c[nH]c2ccccc12)C(=O)N[C@@H](CC(C)C)C(=O)N[C@@H](CCCNC(=N)N[C@@H]1OC[C@@H](O)[C@H](O)[C@H]1O)C(=O)N[C@@H](CCCCN)C(=O)N[C@@H](CCCCN)C(=O)N[C@@H](CC(C)C)C(=O)N[C@@H](CCC(N)=O)C(=O)N[C@@H](CC(=O)O)C(=O)N[C@H](C(=O)N[C@@H](Cc1cnc[nH]1)C(=O)N[C@@H](CC(N)=O)C(=O)N[C@@H](Cc1ccccc1)C(N)=O)C(C)C)C(C)C` (Ac-SVSEIQLMHNLGKHLNSME[X5]VEWL[X5]KKLQDVHNF-NH2), the Activity result is on record as “Non-Toxic”.

As for `CC[C@H](C)[C@H](NC(=O)[C@H](CCC(=O)O)NC(=O)[C@H](CO)NC(=O)[C@@H](NC(=O)[C@H](CO)NC(C)=O)C(C)C)C(=O)N[C@@H](CCC(N)=O)C(=O)N[C@@H](CC(C)C)C(=O)N[C@@H](CCSC)C(=O)N[C@@H](Cc1cnc[nH]1)C(=O)N[C@@H](CC(N)=O)C(=O)N[C@@H](CC(C)C)C(=O)NCC(=O)N[C@@H](CCCCN)C(=O)N[C@@H](Cc1cnc[nH]1)C(=O)N[C@@H](CC(C)C)C(=O)N[C@@H](CC(N)=O)C(=O)N[C@@H](CO)C(=O)N[C@@H](CCSC)C(=O)N[C@@H](CCC(=O)O)C(=O)N[C@@H](CCCNC(=N)N[C@@H]1O[C@H](CO)[C@@H](O)[C@H]1O)C(=O)N[C@H](C(=O)N[C@@H](CCC(=O)O)C(=O)N[C@@H](Cc1c[nH]c2ccccc12)C(=O)N[C@@H](CC(C)C)C(=O)N[C@@H](CCCNC(=N)N)C(=O)N[C@@H](CCCCN)C(=O)N[C@@H](CCCCN)C(=O)N[C@@H](CC(C)C)C(=O)N[C@@H](CCC(N)=O)C(=O)N[C@@H](CC(=O)O)C(=O)N[C@H](C(=O)N[C@@H](Cc1cnc[nH]1)C(=O)N[C@@H](CC(N)=O)C(=O)N[C@@H](Cc1ccccc1)C(N)=O)C(C)C)C(C)C`, the Activity entry is listed as “Non-Toxic”.

`CC[C@H](C)[C@H](NC(=O)[C@H](CCC(=O)O)NC(=O)[C@H](CO)NC(=O)[C@@H](NC(=O)[C@H](CO)NC(C)=O)C(C)C)C(=O)N[C@@H](CCC(N)=O)C(=O)N[C@@H](CC(C)C)C(=O)N[C@@H](CCSC)C(=O)N[C@@H](Cc1cnc[nH]1)C(=O)N[C@@H](CC(N)=O)C(=O)N[C@@H](CC(C)C)C(=O)NCC(=O)N[C@@H](CCCCN)C(=O)N[C@@H](Cc1cnc[nH]1)C(=O)N[C@@H](CC(C)C)C(=O)N[C@@H](CC(N)=O)C(=O)N[C@@H](CO)C(=O)N[C@@H](CCSC)C(=O)N[C@@H](CCC(=O)O)C(=O)N[C@@H](CCCNC(=N)N[C@@H]1O[C@H](CO)[C@@H](O[C@H]2O[C@H](CO)[C@@H](O)[C@H](O)[C@H]2O)[C@H](O)[C@H]1O)C(=O)N[C@H](C(=O)N[C@@H](CCC(=O)O)C(=O)N[C@@H](Cc1c[nH]c2ccccc12)C(=O)N[C@@H](CC(C)C)C(=O)N[C@@H](CCCNC(=N)N[C@@H]1O[C@H](CO)[C@@H](O[C@H]2O[C@H](CO)[C@@H](O)[C@H](O)[C@H]2O)[C@H](O)[C@H]1O)C(=O)N[C@@H](CCCCN)C(=O)N[C@@H](CCCCN)C(=O)N[C@@H](CC(C)C)C(=O)N[C@@H](CCC(N)=O)C(=O)N[C@@H](CC(=O)O)C(=O)N[C@H](C(=O)N[C@@H](Cc1cnc[nH]1)C(=O)N[C@@H](CC(N)=O)C(=O)N[C@@H](Cc1ccccc1)C(N)=O)C(C)C)C(C)C`: the Activity entry is “Non-Toxic”.

Turning to `CC[C@H](C)[C@H](NC(=O)[C@H](CCC(=O)O)NC(=O)[C@H](CO)NC(=O)[C@@H](NC(=O)[C@H](CO)NC(C)=O)C(C)C)C(=O)N[C@@H](CCC(N)=O)C(=O)N[C@@H](CC(C)C)C(=O)N[C@@H](CCSC)C(=O)N[C@@H](Cc1cnc[nH]1)C(=O)N[C@@H](CC(N)=O)C(=O)N[C@@H](CC(C)C)C(=O)NCC(=O)N[C@@H](CCCCN)C(=O)N[C@@H](Cc1cnc[nH]1)C(=O)N[C@@H](CC(C)C)C(=O)N[C@@H](CC(N)=O)C(=O)N[C@@H](CO)C(=O)N[C@@H](CCSC)C(=O)N[C@@H](CCC(=O)O)C(=O)N[C@@H](CCCNC(=N)N[C@@H]1O[C@@H](C)[C@H](O)[C@@H](O)[C@H]1O)C(=O)N[C@H](C(=O)N[C@@H](CCC(=O)O)C(=O)N[C@@H](Cc1c[nH]c2ccccc12)C(=O)N[C@@H](CC(C)C)C(=O)N[C@@H](CCCNC(=N)N)C(=O)N[C@@H](CCCCN)C(=O)N[C@@H](CCCCN)C(=O)N[C@@H](CC(C)C)C(=O)N[C@@H](CCC(N)=O)C(=O)N[C@@H](CC(=O)O)C(=O)N[C@H](C(=O)N[C@@H](Cc1cnc[nH]1)C(=O)N[C@@H](CC(N)=O)C(=O)N[C@@H](Cc1ccccc1)C(N)=O)C(C)C)C(C)C`, the Activity result was “Non-Toxic”.

For `CC[C@H](C)[C@H](NC(=O)[C@H](CCC(=O)O)NC(=O)[C@H](CO)NC(=O)[C@@H](NC(=O)[C@H](CO)NC(C)=O)C(C)C)C(=O)N[C@@H](CCC(N)=O)C(=O)N[C@@H](CC(C)C)C(=O)N[C@@H](CCSC)C(=O)N[C@@H](Cc1cnc[nH]1)C(=O)N[C@@H](CC(N)=O)C(=O)N[C@@H](CC(C)C)C(=O)NCC(=O)N[C@@H](CCCCN)C(=O)N[C@@H](Cc1cnc[nH]1)C(=O)N[C@@H](CC(C)C)C(=O)N[C@@H](CC(N)=O)C(=O)N[C@@H](CO)C(=O)N[C@@H](CCSC)C(=O)N[C@@H](CCC(=O)O)C(=O)N[C@@H](CCCNC(=N)N)C(=O)N[C@H](C(=O)N[C@@H](CCC(=O)O)C(=O)N[C@@H](Cc1c[nH]c2ccccc12)C(=O)N[C@@H](CC(C)C)C(=O)N[C@@H](CCCNC(=N)N[C@H]1O[C@H](CO)[C@@H](O)[C@H](O)[C@@H]1O)C(=O)N[C@@H](CCCCN)C(=O)N[C@@H](CCCCN)C(=O)N[C@@H](CC(C)C)C(=O)N[C@@H](CCC(N)=O)C(=O)N[C@@H](CC(=O)O)C(=O)N[C@H](C(=O)N[C@@H](Cc1cnc[nH]1)C(=O)N[C@@H](CC(N)=O)C(=O)N[C@@H](Cc1ccccc1)C(N)=O)C(C)C)C(C)C`, the Activity entry was “Non-Toxic”.

For `CC[C@H](C)[C@H](NC(=O)[C@H](CCC(=O)O)NC(=O)[C@H](CO)NC(=O)[C@@H](NC(=O)[C@H](CO)NC(C)=O)C(C)C)C(=O)N[C@@H](CCC(N)=O)C(=O)N[C@@H](CC(C)C)C(=O)N[C@@H](CCSC)C(=O)N[C@@H](Cc1cnc[nH]1)C(=O)N[C@@H](CC(N)=O)C(=O)N[C@@H](CC(C)C)C(=O)NCC(=O)N[C@@H](CCCCN)C(=O)N[C@@H](Cc1cnc[nH]1)C(=O)N[C@@H](CC(C)C)C(=O)N[C@@H](CC(N)=O)C(=O)N[C@@H](CO)C(=O)N[C@@H](CCSC)C(=O)N[C@@H](CCC(=O)O)C(=O)N[C@@H](CCCNC(=N)N[C@@H]1O[C@H](CO)[C@@H](O[C@@H]2O[C@H](CO)[C@H](O)[C@H](O)[C@H]2O)[C@H](O)[C@H]1O)C(=O)N[C@H](C(=O)N[C@@H](CCC(=O)O)C(=O)N[C@@H](Cc1c[nH]c2ccccc12)C(=O)N[C@@H](CC(C)C)C(=O)N[C@@H](CCCNC(=N)N[C@@H]1O[C@H](CO)[C@@H](O[C@@H]2O[C@H](CO)[C@H](O)[C@H](O)[C@H]2O)[C@H](O)[C@H]1O)C(=O)N[C@@H](CCCCN)C(=O)N[C@@H](CCCCN)C(=O)N[C@@H](CC(C)C)C(=O)N[C@@H](CCC(N)=O)C(=O)N[C@@H](CC(=O)O)C(=O)N[C@H](C(=O)N[C@@H](Cc1cnc[nH]1)C(=O)N[C@@H](CC(N)=O)C(=O)N[C@@H](Cc1ccccc1)C(N)=O)C(C)C)C(C)C`, the Activity entry is “Non-Toxic”.
